Assay results published in PubChem BioAssay (NCI).
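Test compounds were applied to cells in 96-well plates for 48 hours at 5 doses. TGI is the concentration that stops growth completely.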

Key:
Test in all cases: inhibition of tumour cell growth, NCI panel, 48 h
[1] = system: KM12 colon
[2] = system: NCI-H23 lung
[3] = system: HCT-116 colon
[4] = system: HCT-15 colon
[5] = system: HT29 colon
[6] = system: SN12C renal
[7] = system: SNB-75 CNS
[8] = system: UACC-62 melanoma
[9] = system: K-562 leukemia
[10] = system: A498 renal

Row | Structure (SMILES) | TGI [1] [µM] | TGI [2] [µM] | TGI [3] [µM] | TGI [4] [µM] | TGI [5] [µM] | TGI [6] [µM] | TGI [7] [µM] | TGI [8] [µM] | TGI [9] [µM] | TGI [10] [µM]
1 | COc1ccc2c(c1OC)C(=O)C2 | > 100 | > 100 | > 100 | > 100 | > 100 | > 100 | > 100 | > 100 | – | –
2 | O=C1OC(C(O)CO)C(C(O)CO)OC1=O (configuration not stated) | > 10 | > 10 | – | > 10 | > 10 | > 10 | – | > 10 | > 10 | > 10
3 | O=C1C=C(NCCc2ccc(O)c([N+](=O)[O-])c2)C(=O)c2[nH]cnc21 | > 100 | 45 | > 100 | > 100 | > 100 | > 100 | – | 40.7 | 42.7 | > 100
4 | O=c1c(NCc2ccccc2)c(C2(c3ccccc3F)SCCCS2)c1=O | > 100 | > 100 | > 100 | > 100 | > 100 | > 100 | > 100 | > 100 | – | > 100
5 | CC(C)CC1c2[nH]c3ccccc3c2C[C@H]2C(=O)NC(Cc3c[nH]c4ccccc34)C(=O)N12 (some centres not stated) | 28.8 | 40 | 25.7 | 47.2 | 31.2 | 31.1 | – | 36 | 61.5 | 33.4
6 | Cc1cccc2c(=O)c3cccc([C@H](C)C(=O)O)c3oc12 | > 100 | > 100 | > 100 | > 100 | > 100 | > 100 | – | > 100 | > 100 | > 100
7 | COc1ccc(-c2cc(-c3ccc(C)cc3)n(C3OC(COC(C)=O)C(OC(C)=O)C(OC(C)=O)C3OC(C)=O)c(=S)c2C#N)cc1 (configuration not stated) | > 100 | > 100 | > 100 | > 100 | > 100 | > 100 | 92 | > 100 | > 100 | –
8 | N=c1oc2ccc3ccccc3c2cc1-c1nc2ccccc2c(=O)[nH]1 | 43 | – | > 100 | > 100 | 39.5 | > 100 | 19.6 | 44.1 | > 100 | –
9 | CCCC(=O)OCC1OC(n2cc(F)c(=O)[nH]c2=O)CC1OC(=O)CCC (configuration not stated) | > 10 | 5.02 | > 10 | > 10 | > 10 | > 10 | – | > 10 | > 10 | > 9.23
10 | Nc1nnc(N)n1N | > 100 | > 100 | > 100 | > 100 | > 100 | – | > 100 | > 100 | > 100 | –
11 | O=[N+]([O-])c1ccc2c(c1)nc1n2C(c2c(F)cccc2F)SC1 (configuration not stated) | > 100 | > 100 | > 100 | > 100 | > 100 | > 100 | > 100 | > 100 | > 100 | –
12 | CC1=C[P+](c2ccccc2)(c2ccccc2)c2ccccc2O1 | 10.8 | 24.1 | 16.9 | > 100 | 15.7 | 5.29 | > 100 | 41.1 | > 100 | –
13 | C(=N\NC1=NCCCCN1)/c1ccc2ccccc2c1 | > 100 | > 100 | > 100 | 87.5 | 71.9 | > 100 | > 100 | 79.8 | 40.2 | –
14 | COc1ccc(C2=C(OC(C)=O)c3cccn3-c3ccc(Cl)cc3S2)cc1 | 9.75 | > 10 | – | > 10 | > 10 | > 10 | > 10 | > 10 | 5.69 | –
15 | C/C(Cc1ccc2c(c1)OCO2)=N\N=c1\sc2ccccc2n1C | > 100 | > 100 | > 100 | > 100 | > 100 | > 100 | – | > 100 | > 100 | > 100
16 | CCOC(=O)/C(C(N)=O)=C(\O)C(=O)/C=C(\O)c1ccc(Cl)cc1 | 36.9 | 33.6 | 28.7 | 34.8 | 41.4 | 32.2 | 31 | 43.1 | – | > 100
17 | N=C1OC(CN2CCN(c3ccccc3)CC2)CN1C(=O)Nc1ccccc1 (configuration not stated) | > 100 | > 100 | > 100 | > 100 | > 100 | > 100 | – | > 100 | > 100 | > 100
18 | CN(C)CCCNc1ccnc2c([N+](=O)[O-])cccc12 | > 100 | 31.3 | 39.1 | 43.7 | 12.1 | 28.8 | – | – | – | –
19 | CN1C/C(=C\c2cccs2)C2=NN(c3ccccc3)C(c3cccs3)C2C1 (configuration not stated) | > 100 | > 100 | > 35.7 | > 100 | 22.4 | > 100 | – | > 100 | > 100 | > 90.2
20 | COc1ccc(-c2c(C#N)c(N)[nH]c(=S)c2C#N)cc1 | > 100 | > 100 | 93.8 | > 100 | > 100 | 84.3 | – | > 100 | > 100 | > 100
